These results are taken from patent US20120095022A1, “DERIVATIVES OF 10-AMINO-1,2,3,4-TETRAHYDROPYRIDO[2,1-A]ISOINDOL-6(10BH)-ONES, METHOD FOR PREPARATION THEREOF AND THERAPEUTIC USES THEREOF” (UNIVERSITE D'ORLEANS, priority 2009, published 2012).

One data set concerns the target T1, CDK5/D25 (Homo sapiens, UniProt Q00535).
T1 construct: made in house
Kind of data set: CDK5 kinase inhibition (33P-ATP, histone H1). The settings on record: buffer C, 30° C., 15 μM ATP, read-out: IC50 μM Kinases CDK5. The data set is classed as biochemical. As for the experimental part:
The protein kinase inhibition activities of the compounds of the invention are tested according to the following general procedure:
Buffer C: 60 mM β-glycerophosphate, 15 mM p-nitrophenyl-phosphate, 25 mM Mops (pH 7.2), 5 mM EGTA, 15 mM mgCl2, 1 mM DTT, 1 mM sodium vanadate and 1 mM phenylphosphate.
The controls were made with suitable dilutions of DMSO.
ATP (3.000 Ci/mmol.; 10 mCi/mL) in a final volume of 30 μL. After 30 mins of incubation at 30° C., 25 μL of supernatant aliquots were deposited on phosphocellulose Whatman P81 paper pieces of 2.5×3 cm, and after 20 seconds, the filters were washed five times (for at least 5 minutes each time) in a solution of 10 mL of phosphoric acid/1 litre of water. The wet filters were counted in the presence of 1 mL of scintillation fluid ACS (Amersham).

Another data set deals with PC3 (prostate). As to the kind of experiment: Cytotoxicity on human cells, automated nuclei counting: PC3. The following applies: PC-3, exposed 24 h to 48 h, 0.1 to 25 μM. The data set is classed as cell-based. As to the method:
(§1) Cytotoxicity: This method is based on an automated imaging analysis. 4.10^3 cells were cultivated on 96-well plates and left for 24 hours so as to bind, to spread and proliferate.
(§2) All the cell lines were cultivated in a DMEM or RPMI (Invitrogen) medium. All these media were completed with antibiotics (penicillin-streptomycin) (Lonza) and 10% by volume of fetal calf serum (Invitrogen). The cells were cultivated at 37° C. with 5% of CO2. The treatments with the molecules to be tested were carried out with increasing concentrations. The control experiments were also carried out by using suitable dilutions of DMSO (maximum 1% DMSO).

The subject of the next data set is NCI (lung). Kind of data set: Cytotoxicity on human cells, automated nuclei counting: NCI. It is filed as cell-based. The settings on record: exposed 24 h to 48 h, 0.1 to 25 μM. As for the experimental part:
as §1, §2

The next data set relates to fibroblast. As to the kind of experiment: Cytotoxicity on human cells, automated nuclei counting: fibroblast. It is filed as cell-based. The settings on record: exposed 24 h to 48 h, 0.1 to 25 μM. As for the experimental part:
as §1, §2

The test system of the next data set is MDA-MB 231 (breast). Kind of data set: Cytotoxicity on human cells, automated nuclei counting: MDA-MB 231. The following applies: MDA-MB 231 cells, exposed 24 h to 48 h, 0.1 to 25 μM. It is filed as cell-based. As for the experimental part: as §1, §2
In the next data set the test system is Caco (colon). As to the kind of experiment: Cytotoxicity on human cells, automated nuclei counting: Caco. The data set is classed as cell-based. The settings on record: exposed 24 h to 48 h, 0.1 to 25 μM. As to the method: as §1, §2
In a further data set the test system is Huh7 (liver). As to the kind of experiment: Cytotoxicity on human cells, automated nuclei counting: Huh7. The data set is classed as cell-based. The settings on record: Huh-7, exposed 24 h to 48 h, 0.1 to 25 μM. As to the method:
as §1, §2

The next data set relates to HCT 116 (colon). Kind of data set: Cytotoxicity on human cells, automated nuclei counting: HCT 116. It is filed as cell-based. The settings on record: HCT 116 cells, exposed 24 h to 48 h, 0.1 to 25 μM. As for the experimental part: as §1, §2

Where only a bound is given, the exact number is not on record here.

T1 sequence (Q00535 whole entry): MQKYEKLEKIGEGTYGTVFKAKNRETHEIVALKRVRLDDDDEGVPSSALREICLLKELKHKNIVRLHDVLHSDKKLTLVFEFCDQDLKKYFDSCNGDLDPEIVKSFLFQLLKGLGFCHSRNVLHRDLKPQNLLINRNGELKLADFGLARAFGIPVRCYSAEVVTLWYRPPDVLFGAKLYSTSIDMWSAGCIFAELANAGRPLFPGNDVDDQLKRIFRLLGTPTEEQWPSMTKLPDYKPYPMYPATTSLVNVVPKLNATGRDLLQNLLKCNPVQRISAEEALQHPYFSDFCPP
T1 sequence (Q15078 99-307 partner limits assumed): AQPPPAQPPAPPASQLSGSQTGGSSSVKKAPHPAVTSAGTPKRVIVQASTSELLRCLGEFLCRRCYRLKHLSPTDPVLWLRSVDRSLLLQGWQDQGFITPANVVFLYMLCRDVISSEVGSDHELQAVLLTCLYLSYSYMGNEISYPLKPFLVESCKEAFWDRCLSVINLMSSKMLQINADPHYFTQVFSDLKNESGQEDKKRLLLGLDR

`Cc1cccnc1NC(=O)Nc1cccc2c1C1CC(O)CCN1C2=O` (stereo not drawn) [Compound 107, 1-(2-Hydroxy-6-oxo-1,2,3,4,6,10b-hexahydropyrido[2,1-a]isoindol-10-yl)-3-(3-methylpyridin-2-yl)urea] registered a melting point of 204 to 206 °C. Besides, the IC50 at CDK5/D25 worked out at 0.63 µM. The compound further showed an IC50 with PC3 (prostate) of 5 µM. The IC50 with NCI (lung) was 7 µM. This compound also registered an IC50 with fibroblast of 6 µM. In addition, 8 µM corresponded to half-maximal inhibition with MDA-MB 231 (breast) (IC50). The same compound showed an IC50 in the data set on Caco (colon) of 12 µM. In addition, the IC50 in the data set with Huh7 (liver) came to 5 µM. Also, it took 1.5 µM to reach half-maximal inhibition in the data set with HCT 116 (colon) (IC50).
On to `O=C(Nc1ccccn1)Nc1cccc2c1C1CCCCN1C2=O` (stereo not drawn) [Compound 30, 1-(6-oxo-1,2,3,4,6,10b-hexahydropyrido[2,1-a]isoindol-10-yl)-3-(pyridin-2-yl)urea], for which the IC50 in the data set with PC3 (prostate) came to 0.1 µM; with NCI (lung) it was 0.2 µM; in the data set on fibroblast, 0.2 µM; with MDA-MB 231 (breast), 0.05 µM; in the data set with Caco (colon), 0.1 µM; in the data set on Huh7 (liver), 0.03 µM.
`COc1cc(NC(=O)Nc2cccc3c2C2CC(=O)CCN2C3=O)nc2ccccc12` (stereo not drawn) [Compound 102, 1-(2,6-dioxo-1,2,3,4,6,10b-hexahydropyrido[2,1-a]isoindol-10-yl)-3-(4-methoxyquinolin-2-yl)urea] returned a melting point of 223 to 225 °C.
Compound `O=C(Nc1cccc2c1C1CCCCN1C2=O)NN1CCCCC1` (stereo not drawn) [Compound 85, N-(6-Oxo-1,2,3,4,6,10b-hexahydropyrido[2,1-a]isoindol-10-yl)-N′-(piperidin-1-yl)urea] gave a melting point of 166 °C.
On to `Cc1cccc(NC(=O)Nc2cccc3c2C2CC(=O)CCN2C3=O)n1` (stereo not drawn) [Compound 101, 1-(2,6-dioxo-1,2,3,4,6,10b-hexahydropyrido[2,1-a]isoindol-10-yl)-3-(6-methyl-pyridin-2-yl)urea], for which the melting point fell in the range of 226 to 228 °C.
As to `O=C1c2cccc(NC(=S)Nc3ncccc3Br)c2C2CCCCN12` (stereo not drawn) [Compound 72, 1-(3-bromopyridin-2-yl)-3-(6-oxo-1,2,3,4,6,10b-hexahydropyrido[2,1-a]isoindol-10-yl)thiourea], the melting point was 180 °C.
`O=C1CCN2C(=O)c3cccc(NC(=O)Nc4ccccn4)c3C2C1` (stereo not drawn) [Compound 97, 1-(2,6-Dioxo-1,2,3,4,6,10b-hexahydropyrido[2,1-a]isoindol-10-yl)-3-(pyridin-2-yl)urea] yielded a melting point of 254 °C. Also, at CDK5/D25, the IC50 is 3.6 µM. The same compound gave an IC50 in the data set with PC3 (prostate) of 5 µM. In addition, in the data set on NCI (lung), it took 2 µM to reach half-maximal inhibition (IC50). The compound further came in with an IC50 in the data set with fibroblast of 6 µM. Also, the IC50 in the data set on MDA-MB 231 (breast) was determined as 3 µM. Further, the 50% inhibitory concentration (IC50) with Caco (colon) is 7 µM. Besides, the IC50 in the data set with Huh7 (liver) worked out at 3 µM. In addition, in the data set with HCT 116 (colon), it took 2 µM to reach half-maximal inhibition (IC50).
Turning to `O=C(Nc1cnccn1)Nc1cccc2c1C1CC3(CCN1C2=O)OCCO3` (stereo not drawn) [Compound 29, 1-(6′-Oxo-3′,4′,6′,10b′-tetrahydro-1′H-spiro[[1,3]dioxolane-2,2′-pyrido[2,1-a]isoindole]-10′-yl)-3-(pyrazin-2-yl)urea], the IC50 at CDK5/D25 worked out at 7.1 µM; in the data set on PC3 (prostate), 5 µM; with NCI (lung), 8 µM; in the data set with fibroblast, 10 µM; in the data set with MDA-MB 231 (breast), 3 µM; in the data set on Caco (colon), 5 µM. In addition, the IC50 in the data set on Huh7 (liver) was determined as 3 µM; in the data set on HCT 116 (colon), 1.5 µM.
As for `O=C(Nc1cc[nH]n1)Nc1cccc2c1C1CC3(CCN1C2=O)SCCS3` (stereo not drawn) [Compound 77, 1-(6′-Oxo-3′,4′,6′,10b′-tetrahydro-1′H-spiro[[1,3]dithiolane-2,2′-pyrido[2,1-a]isoindole]-10′-yl)-3-(1H-pyrazol-3-yl)urea], the melting point was 184 °C.
`O=C(NCc1ccccc1)Nc1cccc2c1C1CCCCN1C2=O` (stereo not drawn) [Compound 92, N-Benzyl-N′-(6-oxo-1,2,3,4,6,10b-hexahydropyrido[2,1-a]isoindol-10-yl)urea]: the melting point worked out at 183 °C.
On to `Nc1ccn(C(=O)Nc2cccc3c2C2CCCCN2C3=O)n1` (stereo not drawn) [Compound 78, 3-Amino-N-(6-oxo-1,2,3,4,6,10b-hexahydropyrido[2,1-a]isoindol-10-yl)-1H-pyrazole-1-carboxamide], for which the melting point came to 166 °C.
The compound `O=C(Nc1ccccc1)Nc1cccc2c1C1CCCCN1C2=O` (stereo not drawn) [Compound 87, N-(6-Oxo-1,2,3,4,6,10b-hexahydropyrido[2,1-a]isoindol-10-yl)-N′-phenylurea] came in with a melting point of 172 °C.
As to `O=C(Nc1cccc(Br)n1)Nc1cccc2c1C1CC3(CCN1C2=O)SCCS3` (stereo not drawn) [Compound 21, 1-(6-Bromopyridin-2-yl)-3-(6′-oxo-3′,4′,6′,10b′-tetrahydro-1′H-spiro[[1,3]dithiolane-2,2′-pyrido[2,1-a]isoindole]-10′-yl)urea], the melting point was 170 °C. In addition, the IC50 at CDK5/D25 is > 10 µM. The IC50 with PC3 (prostate) came out at 4 µM. Besides, the IC50 in the data set with NCI (lung) was 6 µM. Moreover, in the data set on fibroblast, the IC50 was 9 µM. In the data set with MDA-MB 231 (breast), half-maximal inhibition (IC50) required 4 µM. The compound further returned an IC50 in the data set with Caco (colon) of 3 µM. The compound also yielded an IC50 with Huh7 (liver) of 2 µM. The midpoint of inhibition in the data set with HCT 116 (colon), the IC50, lay at 2.5 µM.
For the compound `O=C1CCN2C(=O)c3cccc(NC(=O)Nc4cnccn4)c3C2C1` (stereo not drawn) [Compound 98, 1-(2,6-Dioxo-1,2,3,4,6,10b-hexahydropyrido[2,1-a]isoindol-10-yl)-3-(pyrazin-2-yl)urea], the IC50 at CDK5/D25 was > 10 µM; in the data set on PC3 (prostate), > 25 µM; with NCI (lung), > 25 µM; in the data set with fibroblast it was > 25 µM; with MDA-MB 231 (breast), > 25 µM; with Caco (colon), 25 µM. The IC50 was > 25 µM with Huh7 (liver) and 20 µM in the data set on HCT 116 (colon).
In turn, `Cc1ccc(NC(=S)Nc2cccc3c2C2CCCCN2C3=O)nc1` (stereo not drawn) [Compound 73, 1-(5-methylpyridin-2-yl)-3-(6-oxo-1,2,3,4,6,10b-hexahydropyrido[2,1-a]isoindol-10-yl)thiourea] gave a melting point of 232 °C.
`O=C(Nc1ccccn1)Nc1cccc2c1C1CC3(CCN1C2=O)OCCO3` (stereo not drawn) [Compound 28, 1-(6′-Oxo-3′,4′,6′,10b′-tetrahydro-1′H-spiro[[1,3]dioxolane-2,2′-pyrido[2,1-a]isoindole]-10′-yl)-3-(pyridin-2-yl)urea]: the IC50 on CDK5/D25 was determined as 11 µM; in the data set with PC3 (prostate) it was 1.5 µM; in the data set with NCI (lung) it was 4 µM; in the data set with fibroblast it was 3 µM; with MDA-MB 231 (breast), 1 µM; with Caco (colon), 0.6 µM. Also, the IC50 with Huh7 (liver) is 1 µM; in the data set on HCT 116 (colon) it was 0.6 µM.
As for `O=C1c2cccc(-n3c(=O)[nH]c4cnccc4c3=O)c2C2CC3(CCN12)OCCO3` (stereo not drawn) [Compound 113, 3-(6′-oxo-3′,4′,6′,10b′-tetrahydro-1′H-spiro[[1,3]dioxolane-2,2′-pyrido[2,1-a]isoindole]-10′-yl)pyrido[3,4-d]pyrimidine-2,4(1H,3H)-dione], the melting point amounted to 204 °C.
Take `O=C(Nc1cnccn1)Nc1cccc2c1C1CCCCN1C2=O` (stereo not drawn) [Compound 38, 1-(6-Oxo-1,2,3,4,6,10b-hexahydropyrido[2,1-a]isoindol-10-yl)-3-(pyrazin-2-yl)urea]: the melting point is 215 °C. The midpoint of inhibition in the data set with PC3 (prostate), the IC50, lay at 0.3 µM. Half-maximal inhibition in the data set with NCI (lung) (IC50) was put at 0.8 µM. Half-maximal inhibition with fibroblast (IC50) required 0.8 µM. Also, the IC50 with MDA-MB 231 (breast) worked out at 0.2 µM. In the data set with Caco (colon), this compound registered an IC50 of 1 µM. The compound also had an IC50 in the data set with Huh7 (liver) of 0.2 µM. The compound further showed an IC50 with HCT 116 (colon) of 0.1 µM.
On to `O=C1c2cccc(-n3c(=O)[nH]c4ncccc4c3=O)c2C2CCCCN12` (stereo not drawn) [Compound 117, 3-(6-Oxo-1,2,3,4,6,10b-hexahydro-pyrido[2,1-a]isoindol-10-yl)-1H-pyrido[2,3-d]pyrimidine-2,4-dione], for which the melting point was > 290 °C.
As for `O=C1CCN2C(=O)c3cccc(-n4c(=O)[nH]c5cnccc5c4=O)c3C2C1` (stereo not drawn) [Compound 99, 10-(2,4-dioxo-1,2-dihydropyrido[3,4-d]pyrimidin-3(4H)-yl)-1,3,4,10b-tetrahydropyrido[2,1-a]isoindole-2,6-dione], the melting point was determined as 230 °C.
Turning to `Cc1cccnc1NC(=O)Nc1cccc2c1C1CC(=O)CCN1C2=O` (stereo not drawn) [Compound 100, 1-(2,6-dioxo-1,2,3,4,6,10b-hexahydropyrido[2,1-a]isoindol-10-yl)-3-(3-methylpyridin-2-yl)urea], the melting point is > 260 °C.

By IC50 is commonly meant the concentration that gives 50% inhibition. What is called melting point is the temperature of the solid-liquid transition.
